Measured values as given in US20210251953A1, “COMPOSITIONS FOR TREATING AND/OR […]-A[…]” (U[…] DE OLAVIDE, priority 2018, published 2021).
Where two headings read alike, the source gives them in different places.

What was measured:
[1] = system: C. elegans Parkinson's disease model strain NL5901; experiment: Mobility (pitches per minute) in C. elegans Parkinson's disease model; assay type: in vivo; settings: STX64 1 μg/ml in DMSO; nematodes overexpressing human α-synuclein in muscle cells, monitored every two days; vs DMSO
Protocol: C. elegans models of Parkinson's disease: We tested if sul-2 mutations or STX64 (Sigma cat. No. 51950) treatment at 1 μg/ml concentration dissolved in DMSO improved the symptoms caused by the overexpression of human α-synuclein in muscle cells (see the following references for information on the model used: van Ham et al., 2008. PLoS Genet. 4(3):e1000027; Gidalevitz et al., 2009. PLoS Genet. 5(3):e1000399; van Ham et al., 2010. Cell. 142(4):601-12). In particular, nematodes were synchronized at 20° C. and monitored every two days. On each day of monitoring, a nematode was placed in a drop of M9 buffer, allowing 30 seconds accommodation and later counting number of pitches in one minute, assuming that a pitch occurs when the head of the nematode crosses the axial axis. N=20 for each day assayed and condition (this protocol was adapted from Van Ham et al., 2010. Cell. 142: 601-612).

α-synuclein aggregates = experiment: Counting of fluorescent α-synuclein aggregates in C. elegans Parkinson's disease model; assay type: in vivo; settings: NL5901 nematodes expressing α-synuclein fused to YFP; STX64 vs DMSO
Protocol: Further, we tested the effect of the sul-2 deletion and the administration of STX64 on the aggregation of α-synuclein. To quantify the aggregates, animals were transferred to pads comprising 2% agarose and immobilized using 25 mM levamisole. The number of α-synuclein aggregates was determined by counting fluorescent aggregates at 40× magnification, from first bulb pharyngeal to second bulb.

[2] = system: 35 polyglutamine (polyQ) repeats fused to YFP, strain AM140; experiment: Counting of polyQ aggregates in C. elegans Huntington's disease model; assay type: in vivo; settings: STX64 1 μg/ml in DMSO; counted at day 5 of adulthood
Protocol: To quantify the aggregates, animals were transferred to pads comprising 2% agarose and immobilized using 25 mM levamisole. The number of polyQ aggregates was determined by counting fluorescent aggregates at 10× magnification, from first bulb pharyngeal to second bulb.

[3] = system: C. elegans Alzheimer's disease model strain CL2006; experiment: Paralysis in C. elegans Alzheimer's disease model expressing β-amyloid in muscle cells; assay type: in vivo; settings: nematodes expressing β-amyloid in muscle cells, monitored from 1st day of adulthood
Protocol: C. elegans model of Alzheimer's disease: We also tested an Alzheimer's disease model expressing β-amyloid protein in muscle cells which causes paralysis in the nematode as it ages. Nematodes were synchronized at 20° C. Paralysis was monitored from 1st day of adulthood, by observing whether there is a lack of movement after the nematode was stimulated with a platinum pick.

[4] = system: wild type mice injected with β-amyloid oligomers in the hippocampus; experiment: Step-through passive avoidance test after intrahippocampal β-amyloid oligomers (acute AD mouse model); assay type: in vivo
Protocol: (§1) Mice strains and conditions: The male Swiss (CD1) and APP-PS1 (Blanchard et al., 2003. Exp Neural. 184(1):247-63) mice used in this study were purchased from an authorized provider (University of Seville, Spain) and they were habituated to standard animals housing conditions for 2-3 weeks (a 12 h light/dark cycle, temperature and humidity). Behavioral studies were performed with 8 week-old Swiss mice, and >15 month-old APP-PS1 mice in C57Black background. For histological studies, male APP-PS1 mice from 2 to >15 months of age were used. All experiments were performed in accordance with European Union guidelines (2010/63/EU) and with Spanish regulations for the use of laboratory animals in chronic experiments (RD 53/2013 on the care of experimental animals: BOE Aug. 2, 2013), and the approval of the University Pablo de Olavide animal care committees was obtained prior to performing this study.
Mice local drug infusion: Mice were anesthetized with 4% chloral hydrate ([…] of body weight, i.p.) and when fully anesthetized, they were situated in a stereotactic frame. In order to injure the hippocampus, 0.5 μl of 5 μM solution of β-amyloid oligomers were injected bilaterally into the dorsal hippocampus of the mice at the following stereotactic coordinates: AP=−2.2 mm, ML=±1.5 mm, V=−1.5 mm from the Bregma. The mice were then allowed to recover for at least 15 days. […]

β-amyloid = β-amyloid immunohistochemistry and histological analysis in APP-PS1 mice; assay type: in vivo
Protocol: as §1
(§2) Mice Oral STX administration: STX64 was dissolved in drinking water at 0.005 mg/ml. Mice were exposed to STX solution during 3-4 weeks and the water intake was registered every day during the treatment. The estimated daily dose of STX64 was between 1-2 mg/Kg of body weight.
Immunohistochemistry and histological analysis: For immunohistochemistry, an antibody against β-amyloid (1:3000, Sigma-Aldrich) was used. Antibody staining was visualized with H2O2 and diaminobenzidine, and enhanced with nickel. To minimize variability, at least 5 sections per mice were analyzed under a bright-field DMRB RFY HC microscope (Leica). In each section, the percentage area occupied by β-amyloid, the density and the average size of β-amyloid accumulations were quantified using Image-J software (downloaded as a free software package from the public domain: http://rsb.info.nih.gov/ij/download.html).

APP-PS1 mice = experiment: Step-through passive avoidance test in APP-PS1 mice (chronic AD mouse model); assay type: in vivo; settings: APP-PS1 mice older than 15 months, oral STX64 during 3-4 weeks; vs vehicle and wild type mice
Protocol: as §1, §2
Step-through passive avoidance (PA) test: Mice have an innate preference for dark and enclosed environments. […]

R6/1 mice = experiment: Open-field motor activity test in mouse model of Huntington's disease; assay type: in vivo; settings: oral STX64 0.005 mg/ml in drinking water from 1 month of age for 1 month, tested at 2 months
Protocol: Mice strains and conditions: The R6/1 mice (Yi Li et al., 2005. NeuroRX. 2(3): 447-464; Mangiarini et al., 1996. Cell. 87(3):493-506) used in this study were purchased from an authorized provider and they were habituated to standard animals housing conditions for 2-3 weeks (a 12 h light/dark cycle, temperature and humidity). Motor activity studies were performed with 2-month-old R6/1 mice. All experiments were performed in accordance with European Union guidelines (2010/63/EU) and with Spanish regulations for the use of laboratory animals in chronic experiments (RD 53/2013 on the care of experimental animals: BOE Aug. 2, 2013), and the approval of the University Pablo de Olavide animal care committees was obtained prior to performing this study.
Mice Oral STX administration: STX64 was dissolved in drinking water at 0.005 mg/ml. 1-month-old mice were exposed to STX solution for 1 month and the water intake was registered every day during the treatment. The estimated daily dose of STX64 was between 1-2 mg/Kg of body weight.
Motor activity test: Locomotor activity was tested in a non-stressful open-field (56×40×40 cm) for 15 minutes. The distance traveled by the mice was estimated with Smart video-tracking software (Panlab).

[5] = system: GMC101 strain of C. elegans; experiment: Temperature-dependent paralysis assay in C. elegans Alzheimer's disease model; assay type: in vivo; settings: for number of paralyzed worms: 1 μg/ml, counted after 18-hour incubation at 25° C.
Protocol: Paralysis assay: Worms were grown at a non-restrictive temperature of 16° C. until they reached the L4-young adult stage. The temperature was then shifted to 25° C. The number of paralyzed and non-paralyzed animals were counted after an 18-hour incubation at the restrictive temperature of 25° C.
Statistical analysis: The data were analyzed using a 2-tailed chi-square test in contingency table. Statistical analysis was performed using the GraphPad Prism software (version 7.00).

[6] = system: wild type worms and sul-2 deletion mutants; settings: cited from earlier work

SMILES | mobility (number of pitches in one minute) [1] | number of bigger α-synuclein aggregates (≥3 μm) (α-synuclein aggregates) | number of smaller α-synuclein aggregates (<1 μm) (α-synuclein aggregates) | total number of polyQ aggregates [2] | paralysis with age [3] | cognitive deficiencies (escape latency, passive avoidance test) ([4]; local (intrahippocampal) STX64, 0.5 μl of 1 mg/ml, 20 minutes before β-amyloid oligomers) | cognitive deficiencies (escape latency, passive avoidance test) ([4]; systemic (oral) STX64, 0.005 mg/ml in drinking water) | β-amyloid immunoreactive area (β-amyloid; >15-month-old APP-PS1 mice, 3-4 weeks oral STX64 (0.005 mg/ml in drink water), frontal cortex and hippocampus, vs vehicle) | β-amyloid plaque density (β-amyloid; >15-month-old APP-PS1 mice, 3-4 weeks oral STX64, frontal cortex and hippocampus, vs vehicle) | average β-amyloid plaque size (β-amyloid; >15-month-old APP-PS1 mice, 3-4 weeks oral STX64, frontal cortex, vs vehicle) | average β-amyloid plaque size (β-amyloid; >15-month-old APP-PS1 mice, 3-4 weeks oral STX64, hippocampus, vs vehicle) | β-amyloid deposition compared with the time-course in untreated APP-PS1 mice (β-amyloid; >15 month-old APP-PS1 mice, 3-4 weeks oral STX64, frontal cortex and hippocampus) | cognitive deficiencies (passive avoidance test) (APP-PS1 mice) | motor activity (distance traveled in open-field, 15 minutes) (R6/1 mice) | number of paralyzed worms [5] | effect on paralysis, comparison of sul-2 absence, STX64 and EMATE ([5]; GMC101 strain) | longevity ([6]; sul-2 deletion mutants) | longevity ([6]; wild type worms)
NS(=O)(=O)Oc1ccc2c3c(c(=O)oc2c1)CCCCC3 [STX64] | significantly improved mobility | increasing the number of bigger aggregates | decreased the number of smaller aggregates | reduced the total number of aggregates | delayed paralysis | reverted cognitive deficiencies | reverted cognitive deficiencies | significant reduction | significant reduction | significant reduction | a significant reduction, except for plaque size in hippocampus | reduced β-amyloid deposition in APP-PS1 mice older than 15 months to that observed in APP-PS1 mice of 10-12 months of age | completely reverted cognitive deficiencies | decrease in motor activity can be avoided | reduced the number of paralyzed worms | appeared to have the greatest effect | did not further increase the longevity | the same longevity effects as in the sul-2 mutants
C[C@]12CC[C@@H]3c4ccc(OS(N)(=O)=O)cc4CC[C@H]3[C@@H]1CCC2=O [EMATE, estrone sulfamate] | – | – | – | – | – | – | – | – | – | – | – | – | – | – | reduced the number of paralyzed worms | – | – | –
